Legend:
Assay in all cases: fluorescent GTP concentration effect on GTPase potency – biochemical, four GTPases, bead flow cytometry, mechanism study, profiling panel (AID 743330)
Details in all cases: bead-based flow cytometry, fluorescent GTP binding to GTPases
Rab7 = molecular target: Rab7
Cdc42 = molecular target: Cdc42
Cdc42 mutant = molecular target: Cdc42 mutant
Ras = molecular target: Ras

SMILES	EC50 (Rab7; EC50 at 25 nM fluorescent GTP)	EC50 (Rab7; EC50 at 100 nM fluorescent GTP)	EC50 (Cdc42; EC50 at 25 nM fluorescent GTP)	EC50 (Cdc42; EC50 at 100 nM fluorescent GTP)	EC50 (Cdc42 mutant; EC50 at 25 nM fluorescent GTP)	EC50 (Cdc42 mutant; EC50 at 100 nM fluorescent GTP)	EC50 (Ras; EC50 at 25 nM fluorescent GTP)	EC50 (Ras; EC50 at 100 nM fluorescent GTP)
CC1(C)Cc2c(sc(NC(=S)NC(=O)c3ccc(F)cc3)c2C(=O)O)CO1	55 nM	479 nM	248 nM	1040 nM	120 nM	977 nM	66 nM	444 nM
CCC1(C)Cc2c(sc(NC(=S)NC(=O)c3ccccc3)c2C(=O)O)CO1 (stereo not given)	8 nM	29 nM	–	20 nM	12 nM	27 nM	6 nM	23 nM

Source: PubChem BioAssay AID743330 (NMMLSC, 2014)
